SMILES strings stand for the structures. Structures can show the parent of a compound that is named as a salt.

These results are taken from patent publication US12569473B2, “Methods to treat respiratory infection utilizing castanospermine analogs” (60 Degrees Pharmaceuticals, Inc., priority 2022, dated 2026).

The subject of one data set is RSV [strain A/A2]. Nature of the data set: Nose and lung viral titers in RSV-infected cotton rats. The data set is classed as in vivo, Cotton rats [Sigmodon hispidus]. Conditions: Day 5 post infection, celgosivir 25, 50 or 100 mg/kg BID from one day before or after infection, synagis 2.5 mg/kg i.m. once per day, vs vehicle. As for the experimental part: Cotton rats [Sigmodon hispidus, 2 male & 3 female, 6-8 weeks old] provided with standard rodent chow and water ad lib, were infected intranasally with RSV [strain A/A2, 10^5 pfu] on Day 0. Animals received celgosivir [25, 50 or 100 mg/kg BID for total daily doses of 50, 100 or 200 mg/kg] daily beginning one day before or after infection and were sacrificed on Day 5-post-infection for histopathology, qPCR, and viral load assessment. Control groups included a [i] positive control Synagis [2.5 mg/kg, i.m, once per day from the first day post-infection], [ii] vehicle control in which vehicle was administered twice per day beginning one day prior to RSV infection, [iii] a vehicle control group that were mock-infected with PBS for which treatment was initiated beginning one day prior to infection, and [iv] an untreated group mock infected with PBS that received no treatment. Animals were weighed on Day −1 and Day 5, and plasma was obtained by retro-orbital bleed on the same days.
The RSV strain for inoculation [A/A2 (RSV A/A2) (ATCC, Manassas, VA)] was propagated in HEp-2 cells after serial plaque-purification to reduce defective-interfering particles. A pool of virus designated containing approximately 3.0×10^8 pfu/mL in sucrose stabilizing media was used in the experiment. This stock of virus was stored at −80° C. and was previously characterized in vivo in the cotton rat model and validated for upper and lower respiratory tract replication.
Viral Titers: Nose and lung homogenates were centrifuged and diluted in EMEM. Confluent HEp-2 monolayers were infected in duplicate with diluted homogenates in 24-well plates. Following one hour incubation at 37° C. […] Plaques were counted and virus titer determined as geometric mean plaque-forming units per gram of tissue±standard error for all animals in a group at a given time.
Statistics: Group means for each parameter were evaluated by one-way ANOVA, then individual group means were compared [t-test, with multiple comparison correction] to the RSV-infected, vehicle-treated control group. […]

Data set [1] in a line: Cytotoxicity, visual examination, HeLa Ohio cells. Particulars: human, compounds tested at 0.3, 3, 30 and 300 microM, unit inferred. The data set is classed as cell-based. As to the method: The efficacy of celgosivir and castanospermine against RSV and human rhinovirus-14 was assessed in vitro. For RSV studies, embryonic African green monkey kidney cells (MA-104) were grown in minimal essential medium (MEM) supplemented with 0.1% NaHCO3 and 10% fetal bovine serum. When performing antiviral assays, serum was reduced to 2% and […] gentamicin was added to the medium. RSV strain A2 was used for the studies. For rhinovirus studies, the HeLa Ohio cell line was used in place of MA-104 cells.
CPE inhibition assays with visual quantification of antiviral activity and cytotoxicity were performed as described by Sidwell and Huffman (1971) with slight modifications. Sidwell, R. W. and Huffman, J. H. (1971) Use of disposable micro-tissue culture plates for antiviral and interferon induction studies. Appl. Microbiol. 22, […]. […] All compounds were assayed for virus inhibition in quadruplicate and for cytotoxicity in duplicate. For rhinovirus studies, Pirodavir was applied at a concentration of 0.001-1 μg/ml as the positive control compound. For RSV studies, the positive control compound was Ribavirin applied at a concentration of 0.5-500 μg/ml. For each compound, two wells were set aside as uninfected, untreated cell controls per test and four wells per test received virus only and represented controls for virus replication. […] For all CPE-based assays, the 50% effective concentration (EC50) was calculated by regression analysis using the means of the CPE ratings at each concentration of compound. Morphological changes due to compound cytotoxicity were graded on a scale of 0-5; grade 5 was defined as 100% cytotoxicity. The 50% cytotoxic dose (IC50) was calculated by regression analysis. A selective index (S.I.) was calculated for each compound (SI.=(IC50)/(EC50)).

For the compound `CCCC(=O)O[C@H]1CN2CC[C@H](O)[C@@H]2[C@@H](O)[C@@H]1O` [Celgosivir HCL], the “nasal and lung viral titer” value is listed as “no effect on viral titer in either the nose or the lung” in the data set on RSV [strain A/A2] (listed as Celgosivir) and “did not” with RSV [strain A/A2] (listed as celgosivir). Moreover, the CC50 (commonly the concentration giving 50% cytotoxicity) at 6 days in data set [1] was > 300 µM.
